Laboratory results as given in ChEMBL document CHEMBL2157913, “Synthesis and evaluation of apoptosis induction of thienopyrimidine compounds on KRAS and BRAF mutated colorectal cancer cell lines” (Bioorg Med Chem, 2012).
Active and inactive are the calls of the source. The rule behind the calls is not given here.

What was measured:
[1] = system: HCT-116; test: Induction of apoptosis in human HCT116 cells expressing KRAS mutant assessed as depolarization of mitochondrial membrane after 24 hrs by flow cytometry; assay type: functional, cell-based
[2] = system: HT-29; test: Induction of apoptosis in human HT-29 cells expressing BRAF mutant assessed as depolarization of mitochondrial membrane after 24 hrs by flow cytometry; assay type: functional, cell-based
[3] = system: HeLa; test: Induction of apoptosis in human HeLa cells expressing wild type KRAS and BRAF assessed as depolarization of mitochondrial membrane after 24 hrs by flow cytometry; assay type: functional, cell-based
[4] = system: HT-29; test: Induction of apoptosis in human HT-29 cells expressing BRAF mutant assessed as activation of caspase-3 at 200 uM after 10 mins by flow cytometry relative to control; assay type: functional
[5] = system: HT-29; test: Induction of apoptosis in human HT-29 cells expressing BRAF mutant assessed as cell death at 200 uM after 10 mins by flow cytometry; assay type: functional, cell-based
[6] = Homo sapiens, HeLa, 24 h, read-out: IC50
[7] = Homo sapiens, HCT-116, 24 h, read-out: IC50
[8] = Homo sapiens, HT-29, 24 h, read-out: IC50

| SMILES | IC50 ([1]; hct-116) | IC50 ([2]; ht-29) | IC50 [3, 6] [µM] | IC50 [1, 7] [µM] | IC50 [2, 8] [µM] | IC50 ([3]; hela) | fold change (FC) [4] | Activity [5] | Activity [4] |
| --- | --- | --- | --- | --- | --- | --- | --- | --- | --- |
| Cc1ccccc1Nc1ncnc2sc3ccccc3c12 | – | – | 129 | 101 | 120 | – | 10 | Active | – |
| c1ccc(Nc2ncnc3sc4ccccc4c23)cc1 | Not Active | Not Active | > 130 | – | – | – | – | – | Active |
| c1ccc(Nc2ncnc3c2sc2ccccc23)cc1 | Not Active | Not Active | – | – | – | Not Active | – | – | – |
| COc1ccccc1Nc1ncnc2sc3ccccc3c12 | Not Active | Not Active | > 130 | – | – | – | – | – | Active |
| Cc1ccccc1CNc1ncnc2c1sc1ccccc12 | Not Active | Not Active | – | – | – | Not Active | – | – | – |
| Cc1ccccc1CNc1ncnc2sc3ccccc3c12 | Not Active | Not Active | > 130 | – | – | – | – | – | – |

Now from value to molecule, other results behind:

| IC50 ([1]; hct-116) | IC50 ([2]; ht-29) | IC50 [3, 6] [µM] | IC50 [1, 7] [µM] | IC50 [2, 8] [µM] | IC50 ([3]; hela) | SMILES | fold change (FC) [4] | Activity [5] | Activity [4] |
| --- | --- | --- | --- | --- | --- | --- | --- | --- | --- |
| Not Active | Not Active | 105 | – | – | – | c1ccc(CNc2ncnc3c2sc2ccccc23)cc1 | – | – | – |
| – | – | 109 | 92 | 117 | – | COc1ccc(Nc2ncnc3sc4ccccc4c23)cc1 | 10 | Active | – |
| Not Active | Not Active | 102 | – | – | – | CN(C)c1ncnc2sc3ccccc3c12 | – | – | – |
| – | – | 113 | > 130 | 126 | – | c1ccc(CNc2ncnc3sc4ccccc4c23)cc1 | – | – | – |
| Not Active | Not Active | 118 | – | – | – | COc1ccc(CNc2ncnc3c2sc2ccccc23)cc1 | – | – | – |
| – | – | 77.7 | 121 | 127 | – | Cc1ccccc1Nc1ncnc2c1sc1ccccc12 | – | – | – |
| Not Active | Not Active | 129 | – | – | – | COc1ccccc1CNc1ncnc2c1sc1ccccc12 | – | – | – |
